Measurements from the NIST ThermoML archive (doi:10.1021/je049685z).
± gives the expanded uncertainty stated by the source.

Assay: xn = mol fraction of the nth substance listed
Details: Liquid

Cc1ccccc1 [toluene] + CCCO
mass density [kg/m3]
Details	100 kPa	5000 kPa	10000 kPa	15000 kPa	20000 kPa	25000 kPa	30000 kPa
303.15 K, x2 = 0	857.4 ± 0.3	861.3 ± 0.3	865.1 ± 0.4	868.7 ± 0.4	872.3 ± 0.5	875.6 ± 0.6	878.9 ± 0.6
303.15 K, x2 = 0.2	847.5 ± 0.3	851.5 ± 0.3	855.3 ± 0.4	859 ± 0.5	862.5 ± 0.5	865.9 ± 0.6	869.2 ± 0.6
303.15 K, x2 = 0.4	837.2 ± 0.3	841.2 ± 5.1	845 ± 0.4	848.7 ± 0.5	852.2 ± 0.6	855.7 ± 0.6	858.9 ± 3.2
303.15 K, x2 = 0.6	825.9 ± 0.3	829.9 ± 0.9	833.7 ± 0.5	837.4 ± 0.5	840.9 ± 0.6	844.3 ± 0.7	847.5 ± 1.6
303.15 K, x2 = 0.8	812.4 ± 0.3	816.4 ± 3.1	820.2 ± 0.5	823.8 ± 0.6	827.3 ± 0.6	830.7 ± 0.7	834 ± 1.4
313.15 K, x2 = 0	848.1 ± 0.3	852.1 ± 0.3	856.2 ± 0.4	860 ± 0.5	863.7 ± 0.5	867.2 ± 0.6	870.7 ± 0.6
313.15 K, x2 = 0.2	838.1 ± 0.3	842.2 ± 0.3	846.3 ± 0.4	850.2 ± 0.5	853.9 ± 0.6	857.5 ± 0.6	860.9 ± 0.7
313.15 K, x2 = 0.4	828 ± 0.3	832 ± 0.4	836.1 ± 0.4	840 ± 0.5	843.7 ± 0.6	847.3 ± 0.7	850.7 ± 0.7
313.15 K, x2 = 0.6	816.9 ± 0.3	821 ± 0.4	825 ± 0.5	828.9 ± 0.5	832.6 ± 0.6	836.1 ± 0.7	839.5 ± 0.8
313.15 K, x2 = 0.8	803.8 ± 0.3	807.8 ± 0.4	811.9 ± 0.5	815.8 ± 0.6	819.4 ± 0.7	823 ± 0.7	826.3 ± 0.8
323.15 K, x2 = 0	838.6 ± 0.3	842.9 ± 0.3	847.2 ± 0.4	851.2 ± 0.5	855.1 ± 0.5	858.9 ± 0.6	862.5 ± 0.7
323.15 K, x2 = 0.2	828.5 ± 0.3	832.9 ± 0.4	837.2 ± 0.4	841.3 ± 0.5	845.2 ± 0.6	849 ± 0.6	852.6 ± 0.7
323.15 K, x2 = 0.4	818.3 ± 0.3	822.7 ± 0.4	827 ± 0.5	831.1 ± 0.5	835 ± 0.6	838.8 ± 0.7	842.4 ± 0.8
323.15 K, x2 = 0.6	807.4 ± 0.3	811.8 ± 0.4	816.1 ± 0.5	820.2 ± 0.6	824.1 ± 0.7	827.9 ± 0.7	831.5 ± 0.8
323.15 K, x2 = 0.8	794.7 ± 0.3	799.1 ± 0.4	803.4 ± 0.5	807.4 ± 0.6	811.3 ± 0.7	815 ± 0.8	818.6 ± 0.8
333.15 K, x2 = 0	829.2 ± 0.3	833.7 ± 0.4	838.2 ± 0.4	842.5 ± 0.5	846.6 ± 0.6	850.5 ± 0.6	854.3 ± 0.7
333.15 K, x2 = 0.2	818.7 ± 0.3	823.3 ± 0.4	827.9 ± 0.5	832.3 ± 0.5	836.4 ± 0.6	840.4 ± 0.7	844.2 ± 0.7
333.15 K, x2 = 0.4	808.5 ± 0.3	813.1 ± 6.6	817.8 ± 0.5	822.1 ± 0.6	826.3 ± 0.6	830.3 ± 0.7	834.1 ± 0.8
333.15 K, x2 = 0.6	797.9 ± 0.3	802.5 ± 1.2	807.1 ± 0.5	811.4 ± 0.6	815.6 ± 0.7	819.5 ± 0.8	823.3 ± 1.3
333.15 K, x2 = 0.8	785.6 ± 0.4	790.2 ± 4.5	794.7 ± 0.5	799 ± 0.6	803.1 ± 0.7	807 ± 0.8	810.8 ± 1.4
